Results: paper PMC5958064, “Single cell analysis of kynurenine and System L amino acid transport in T cells” (Nature Communications, 2018)

Columns and labels:
[1] = molecular target: T1, System L transporter SLC7A5 (Mus musculus, UniProt Q9Z127); assay: Flow cytometry kynurenine uptake assay (450 nm fluorescence) in T cells; type: cell-based; settings: D3 TH17cond CD4+ T cells, kynurenine 100 μM, 4 min, BCH 10 mM
T1 construct: endogenous in cells

activated T cells = assay: Radiolabelled 3H-glutamine uptake in activated T cells; type: cell-based, mouse; settings: IL-2 maintained TH1 cells and CTLs, BCH 5 mM
Procedure: (§1) Briefly, radiolabelled uptake was carried out using 1 × 10^6 cells resuspended in 0.4 ml uptake medium. Kynurenine uptake was carried out in warmed (37 °C) HBSS (GIBCO) containing [^3H] L-kynurenine (0.1 μCi/ml). 4 min uptake assays were carried out layered over 0.5 ml of 1:1 silicone oil (Dow Corning 550 (BDH silicone products; specific density, 1.07 g/ml):dibutyl phthalate (Fluka)). Cells were pelleted below the oil, the aqueous supernatant solution, followed by the silicon oil/dibutyl phthalate mixture was aspirated, and the cell pellet underneath resuspended in 200 μl NaOH (0.5 M) and β-radioactivity measured by liquid scintillation counting in a Beckman LS 6500 Multi-Purpose Scintillation Counter (Beckman Coulter). Similarly, glutamine uptake was performed using [^3H] L-glutamine (0.5 μCi/ml); tryptophan uptake was performed using [^3H] L-tryptophan (0.5 μCi/ml). Where indicated, 5 mM BCH, Kynurenine, L-glutamine or L-tryptophan were used, respectively, to quench radiolabeled ligand uptake. Where indicated, the sodium free buffer was prepared using TMACl as described in Baird et al.[35] Data are expressed as molecules radiotracer per cell per minute. [^3H] L-kynurenine, [^3H] L-tryptophan and [^3H] L-glutamine were obtained from Perkin Elmer. All other chemicals were obtained from Sigma.

System L transporter = molecular target: T2, System L transporter (Mus musculus, UniProt Q9Z127); assay: Radiolabelled 3H-tryptophan uptake in TH1 cells and CTLs; type: cell-based; settings: BCH 5 mM
T2 construct: Radiolabelled tracer uptake in IL-2 maintained TH1 cells (top panels) and IL-2 maintained CTLs (bottom panels); endogenous in cells; host or cells: IL-2 maintained mouse TH1 cells and CTLs
T2 sequence (Q9Z127 whole entry): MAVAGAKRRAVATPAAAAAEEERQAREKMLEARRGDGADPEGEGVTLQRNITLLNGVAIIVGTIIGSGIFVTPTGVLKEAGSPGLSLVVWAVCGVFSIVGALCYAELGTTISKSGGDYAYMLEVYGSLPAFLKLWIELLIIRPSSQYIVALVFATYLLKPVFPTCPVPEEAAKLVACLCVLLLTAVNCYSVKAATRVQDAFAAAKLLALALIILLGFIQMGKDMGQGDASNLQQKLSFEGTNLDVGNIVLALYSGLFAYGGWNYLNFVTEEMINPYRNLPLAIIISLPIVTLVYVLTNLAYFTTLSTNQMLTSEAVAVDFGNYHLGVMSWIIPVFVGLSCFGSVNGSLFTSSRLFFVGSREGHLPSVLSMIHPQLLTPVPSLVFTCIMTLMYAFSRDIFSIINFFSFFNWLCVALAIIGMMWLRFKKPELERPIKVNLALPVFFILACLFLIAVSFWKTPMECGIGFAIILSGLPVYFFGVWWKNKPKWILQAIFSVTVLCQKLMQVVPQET
T2 sequence (P10852 whole entry partner): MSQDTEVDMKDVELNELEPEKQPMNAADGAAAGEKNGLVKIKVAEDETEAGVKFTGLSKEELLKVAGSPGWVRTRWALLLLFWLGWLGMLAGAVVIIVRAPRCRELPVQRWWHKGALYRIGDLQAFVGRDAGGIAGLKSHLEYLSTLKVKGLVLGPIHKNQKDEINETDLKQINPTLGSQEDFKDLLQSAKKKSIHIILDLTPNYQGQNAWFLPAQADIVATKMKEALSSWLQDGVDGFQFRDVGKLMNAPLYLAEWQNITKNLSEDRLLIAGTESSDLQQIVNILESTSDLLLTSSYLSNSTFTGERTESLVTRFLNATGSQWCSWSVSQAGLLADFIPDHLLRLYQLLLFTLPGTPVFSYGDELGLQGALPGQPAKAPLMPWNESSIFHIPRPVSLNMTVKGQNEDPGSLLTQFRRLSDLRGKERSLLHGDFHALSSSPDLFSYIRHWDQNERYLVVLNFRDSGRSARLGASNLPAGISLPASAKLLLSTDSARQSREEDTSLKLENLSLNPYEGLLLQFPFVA
Procedure: as §1

[2] = tested on: Cyp1a1 (mRNA, through AHR); assay: Cyp1a1 mRNA induction in TH17cond CD4+ T cells (qPCR); type: cell-based, mouse; settings: mouse, day 3 TH17-conditioned primary CD4+ T cells, D3 TH17cond CD4+ T cells, 2 h; read-out: EC50 to drive Cyp1A1 mRNA expression
Procedure: To activate primary T cells, spleens and/or lymph nodes (LN) were removed, disaggregated and red blood cells lysed. Cells were stimulated with 1 μg/ml of the CD3 monoclonal antibody (2C11) and 2 μg/ml anti-CD28 (37.51; ebiosciences) to trigger the TCR. Naive CD4^+ T cells and 24 h TCR-activated CD4^+ T cells were purified using CD4 isolation kit (EasySep, STEMCELL Technologies). […] Proleukin, Novartis) for a further 3–5 days. To generate TH1s and TH17s, murine CD8^+ T cells were depleted from lymph node preparations using CD8 depletion kit (EasySep, STEMCELL Technologies). […] RnD Systems) and IL-2 (20 ng/ml) and for TH17s; cytokines IL-6 (50 ng/ml, Peprotech), IL-1β (10 ng/ml, Peprotech) and TGFβ (2 ng/ml, Peprotech). TH17s were cultured in IMDM (Gibco). All other cells were cultured in RPMI 1640 containing L-glutamine (Gibco). Culture media was supplemented with 10% FBS (Gibco), 50 μM β-mercaptoethanol (β-ME, Sigma) and penicillin/streptomycin (Gibco). Cells were incubated at 37 °C with 5% CO2 throughout. […] RNA was purified using the RNeasy RNA purification Mini Kit (Qiagen) (Genomic DNA was digested with RNase-free DNase (Qiagen) following manufacturer instructions) and reverse-transcribed using the iScript cDNA synthesis kit (BioRad). Quantitative PCR was performed in 96-well plate format using iQ SYBR Green-based detection (BioRad) on a BioRad iCycler.

AHR [3] = tested on: AHR; set-up: method as in PMID 25657351, PMID 29279331; settings: cited from earlier work
mTORC1 = mTORC1 activity in CTLs after leucine removal and refeeding; type: cell-based, mouse; settings: CTLs removed from leucine, refed leucine 100uM ± Kyn 100uM
Source text: page 13: • We […] would not be able to measure the levels of in vivo ky nurenine uptake with this assay (for the reasons explained above). However, this is a pertinent question, and will relate to the total amount of available kynurenine compared to alternative System L substrates. The detailed micro-environmental metabolomics techniques required to perform this kind of analysis is beyond the scope of this paper, however we have tried to address this point in the discussion. Second, did CD4 T cells (Foxp3-) and Tregs (Foxp3+) from Lm-infected mice also i mport Ky n? […] This, also, is a very interesting aspect, however we feel that it is beyond the scope of this paper. Point 4: Data presented in Figures 4 & 5 show convincingly that SLC7A5 ablation in CD4 T cells abolishes Kyn uptake in CD4 T cells selectively and that imported Kyn triggers AhR signaling in CD4 T cells, respectively. However, no data is presented to address the biological significance of these findings, specifically regarding the reported ability of Kyn to suppress Th1 responses (e.g. IFNg production) or to reinforce Treg-mediated suppression of effector T cells via AhR signaling. […]

[4] = tested on: Cyp1A1 expression in U87 glioma cells; set-up: method as in PMID 21976023; settings: read-out: EC50 to drive Cyp1A1 expression; cited from earlier work
AHR [5] = tested on: AHR; set-up: method as in PMID 29279331; settings: COS-1 cells; read-out: EC50 for AHR activation; cited from earlier work

T1 sequence (Q9Z127 whole entry): as the sequence (Q9Z127 whole entry) above
T1 sequence (P10852 whole entry partner): as the sequence (P10852 whole entry partner) above

Row | EC50 at 2 h [2] | SMILES | effect on kynurenine uptake [1] | effect on radiolabelled glutamine uptake (activated T cells) | effect on 3H-tryptophan transport (System L transporter) | concentrations needed to activate the AHR (AHR [3]) | effect on mTORC1 activity (mTORC1) | EC50 [4] | EC50 (AHR [5])
1 |  | NC1(C(=O)O)CC2CCC1C2 (centres unmarked) [BCH, 2-amino-2-norbornanecarboxylic acid] | inhibited | failure to block | inhibited |  |  |  | 
2 | 11 µM | Nc1ccccc1C(=O)CC(N)C(=O)O (centres unmarked) [kynurenine] |  |  |  | μM levels | impair restoration of mTORC1 activity | 12.3 µM | 13 µM
